Measurements from the supplement of paper PMC4862054.

Columns and labels:
Settings in all cases: incubation time: 72 h
BT-549 [1] = test: normalised response (% of control), CellTiter-Glo; higher = more viable cells (100 = DMSO, 0 = benzethonium chloride kill control)
Description: (§1)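 DSRT, 72 h incubation, CellTox Green / CellTiter-Glo readout. Signal is normalised to DMSO and benzethonium chloride controls. Value is the normalised response at dose 3.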

MDA-MB-231 [2] = test: as above
Description: as §1

MDA-MB-436 [3] = test: as above
Description: as §1

MDA-MB-468 [4] = test: as above
Description: as §1

HCC1937 [5] = test: as above
Description: as §1

Hs578T [6] = test: as above
Description: as §1

CAL-51 [7] = test: as above
Description: as §1

HCC1599 [8] = test: as above
Description: as §1

BT-474 [9] = test: as above
Description: as §1

HDQ-P1 [10] = test: as above
Description: as §1

CAL-85-1 [11] = test: as above
Description: as §1

MDA-MB-453 [12] = test: as above
Description: as §1

SK-BR-3 = test: as above
Description: as §1

CAL-120 [13] = test: as above
Description: as §1

HCC1143 [14] = test: as above
Description: as §1

MCF-10A [15] = test: as above
Description: as §1

CAL-148 [16] = test: as above
Description: as §1

DU-4475 [17] = test: as above
Description: as §1

MFM-223 [18] = test: as above
Description: as §1

MDA-MB-231 [19] = test: normalised response (% of control), CellTox Green; higher = less cell death (100 = DMSO, 0 = benzethonium chloride kill control)
How it was run: (§2)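 A 20 µl suspension of breast cancer cells was seeded into each well of 384-well plates containing compound at 5 concentrations in 10-fold steps over a compound-specific 10,000-fold range. After 72 h incubation, CellTox Green fluorescence (485/520 nm) was read first, and CellTiter-Glo luminescence was read after 10 min at room temperature. Each plate was normalised against 0.1 % DMSO (100) and a positive kill control (0), and each value is the normalised signal at one concentration.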

MDA-MB-436 [20] = test: as above
How it was run: as §2

HCC1937 [21] = test: as above
How it was run: as §2

Hs578T [22] = test: as above
How it was run: as §2

CAL-51 [23] = test: as above
How it was run: as §2

HCC1599 [24] = test: as above
How it was run: as §2

BT-474 [25] = test: as above
How it was run: as §2

HDQ-P1 [26] = test: as above
How it was run: as §2

CAL-85-1 [27] = test: as above
How it was run: as §2

MDA-MB-453 [28] = test: as above
How it was run: as §2

CAL-120 [29] = test: as above
How it was run: as §2

HCC1143 [30] = test: as above
How it was run: as §2

MCF-10A [31] = test: as above
How it was run: as §2

CAL-148 [32] = test: as above
How it was run: as §2

DU-4475 [33] = test: as above
How it was run: as §2

MFM-223 [34] = test: as above
How it was run: as §2

BT-549 [35] = test: as above
How it was run: as §2

MDA-MB-468 [36] = test: as above
How it was run: as §2

SMILES	normalised response (BT-549 [1]) [%]	normalised response (MDA-MB-231 [2]) [%]	normalised response (MDA-MB-436 [3]) [%]	normalised response (MDA-MB-468 [4]) [%]	normalised response (HCC1937 [5]) [%]	normalised response (Hs578T [6]) [%]	normalised response (CAL-51 [7]) [%]	normalised response (HCC1599 [8]) [%]	normalised response (BT-474 [9]) [%]	normalised response (HDQ-P1 [10]) [%]	normalised response (CAL-85-1 [11]) [%]	normalised response (MDA-MB-453 [12]) [%]	normalised response (SK-BR-3) [%]	normalised response (CAL-120 [13]) [%]	normalised response (HCC1143 [14]) [%]	normalised response (MCF-10A [15]) [%]	normalised response (CAL-148 [16]) [%]	normalised response (DU-4475 [17]) [%]	normalised response (MFM-223 [18]) [%]	normalised response (MDA-MB-231 [19]) [%]	normalised response (MDA-MB-436 [20]) [%]	normalised response (HCC1937 [21]) [%]	normalised response (Hs578T [22]) [%]	normalised response (CAL-51 [23]) [%]	normalised response (HCC1599 [24]) [%]	normalised response (BT-474 [25]) [%]	normalised response (HDQ-P1 [26]) [%]	normalised response (CAL-85-1 [27]) [%]	normalised response (MDA-MB-453 [28]) [%]	normalised response (CAL-120 [29]) [%]	normalised response (HCC1143 [30]) [%]	normalised response (MCF-10A [31]) [%]	normalised response (CAL-148 [32]) [%]	normalised response (DU-4475 [33]) [%]	normalised response (MFM-223 [34]) [%]	normalised response (BT-549 [35]) [%]	normalised response (MDA-MB-468 [36]) [%]
CC1(C)CCC(CN2CCN(c3ccc(C(=O)NS(=O)(=O)c4ccc(NCC5CCOCC5)c([N+](=O)[O-])c4)c(Oc4cnc5[nH]ccc5c4)c3)CC2)=C(c2ccc(Cl)cc2)C1 [ABT-199] (100 nM)	100	99.3	96.7	93.6	98.2	107	92.4	94.2	96.7	104	101	90.7	101	101	102	98.2	98.9	102	99.2	105	83	89.3	104	101	99.2	101	93.6	94.6	101	101	91.6	81.7	84.2	99.3	79.9		
Cn1cnc2c(F)c(Nc3ccc(Br)cc3Cl)c(C(=O)NOCCO)cc21 [Selumetinib] (100 nM)	104	84.7	96.2	89.6	85	89.4	94.1	113	84.2	70.6	100	103	91	90	92	45.7	94	81	94.9	77.1	77.2	100	102	98.7	89.2	96.5	97.9	94.9	101	95.8	86.3	94.8	90.4	92.2	94.9	104	75.3
CC(=O)c1c(C)c2cnc(Nc3ccc(N4CCNCC4)cn3)nc2n(C2CCCC2)c1=O [Palbociclib] (100 nM)	97.9	95.9	96.4	85	95.7	103	72.8	94.4	85.7	103	97.3	105	86.3	86.4	96.5	85.8	85.7	98	79.7	103	77	82	104	110	95.2	99.6	101	102	107	98.7	55.5		103	98.8	101	103	
COc1cc2c(cc1O)CC[C@@H]1[C@@H]2CC[C@]2(C)[C@@H](O)CC[C@@H]12 [2-methoxyestradiol] (100 nM)	95.5	102	101	103	93.4	102	63.5	89.4	98.5	103	97.3	91.1	89	101	100	94.5	90.6	101	94.2	99.3	87.4	97.3	103	78.3	102	94	107	87.6	101	98		61.8	56.1	98.7	102	110	69.5
Nc1ncn([C@@H]2O[C@H](CO)[C@@H](O)[C@H]2O)c(=O)n1 [Azacitidine] (100 nM)	101	98.1	99	96.4	97	100	99.8	100	102	103	99.1	89	96	96.3	98.6	103	101	91.1	98	88.1	79.5	99.4	103	99.3	98	101	64.8	108	83.8	96.9	56	87	103	98.2	97.8	99.9	115
Nc1nc2[nH]cnc2c(=S)[nH]1 [Thioguanine] (100 nM)	95.9	93.5	97	98.8	96.3	101	109	96.5	83.4	90.8	91.9	112	98.9	108	101	97.4	102	95.7	96.8	105	89	96.7	90.5	108	97.1	102	104	111	99	100	59.1	75.6		101	98.7	103	66.4
CC(C)(C)c1cnc(CSc2cnc(NC(=O)C3CCNCC3)s2)o1 [SNS-032] (100 nM)	20.3	29.7	27.9	12.6	60.8	55.6	31.9	90.2	68.2	44.2	28.2	46.2	33.1	70.9	36.6	79.4	42.8	86.9	76.9	4.71	59.7	53.3	60.3	39.7	88.5	86.4	57.6	35.7	94.9	90.5	85	84.7	-22.6	95.2	91.5	88.6	94.5
Cn1cc(C2=Nc3cc(NC(=O)C(N)C4CCCCC4)cc4c3C2=CNNC4=O)cn1 (stereo not drawn) (100 nM)	93.5	93.5	91.6	88.8	95.1	90.7	96.7	63.3	94.4	95.2	87.1	74.1	74.1	89	90.9	81.7	82.7	95.1	77.8	96.3		76.5	98.8	96.1	89.5	97.7	107	73	85	92	101	62.9		96.7	98.5	87.2	106
